{
  "source": "patent US20210069152A1",
  "about": "“METHODS FOR TREATING HETEROTOPIC OSSIFICATION” (Clementia Pharmaceuticals Inc., priority 2016, published 2021)",
  "key": {"[1]": {"tested_on": "subjects with fibrodysplasia ossificans progressiva", "assay": "Safety outcomes, open-label study", "assay_type": "in vivo, human", "experimental": "(§1) Sixty-seven flare-ups have been treated: 40 with double-blind medication (10 subjects received placebo, 9 subjects received palovarotene at 5 mg once daily for 2 weeks followed by 2.5 mg once daily for 4 weeks, and 21 subjects received palovarotene at 10 mg once daily for 2 weeks followed by 5 mg once daily for 4 weeks); and 27 received open-label palovarotene. Sixty-one of these 67 flare-ups have available results from post-baseline imaging (by low-dose CT scan). The results are summarized for the respective studies in FIGS. 1 and 2.\nThe findings were similar in the open-label study (described in Example 1) in which the overall incidence of adverse events was 92.3% (12 of 13 subjects). Retinoid-associated adverse events were reported by all subjects; most were mild (69.2%) in severity. The most frequently reported adverse events overall were dry skin (69.2%) and pruritus (61.5%)."}, "[2]": {"tested_on": "heterotopic ossification in subjects with fibrodysplasia ossificans progressiva", "assay": "Volume of new heterotopic ossification at flare-up site (x-ray / low-dose CT) in FOP patients, adult cohort dosing regimens", "assay_type": "in vivo, human", "conditions": "for reduction in mean bone volume formation (new HO) relative to Placebo/Untreated group: 12 weeks", "experimental": "FIGS. 3A and 3B are graphs showing a comparison of the volume of new heterotopic ossification between (i) episodic treatment of FOP patients (i.e., treatment during non-quiescent periods only and (ii) the treatment regimens of the present invention that include treatment during both quiescent and non-quiescent periods. Patients in the “Placebo/Untreated” group were treated with a sugar pill or untreated (28 patients). Patients in the “PVO Non-Quiescent Only” group were treated with either 20 mg palovarotene (PVO) daily for 28 days followed by 10 mg PVO daily for 56 days (47 patients) or 10 mg PVO daily for 14 days followed by 5 mg PVO daily for 28 days (9 patients). Patients in the “PVO Quiescent/Non-Quiescent” group were treated with 5 mg PVO daily during the quiescent period and with 20 mg PVO daily for 28 days (NQ loading dose) followed by 10 mg PVO daily for 56 days (NQ maintenance dose) following initiation of flare-up symptoms, i.e., initiation of a non-quiescent period (10 patients).\nAdult cohort includes individuals who have achieved at least 90% skeletal maturity irrespective of age. Individuals in the adult cohort received palovarotene (neutral form) at 5 mg once daily as a non-flare-up based treatment (e.g., during periods when symptoms of a flare-up were not present). […]\nAssessment of new HO at the flare-up site was evaluated using x-ray, and low-dose CT imaging was employed as a secondary imaging assessment. […] In order to ensure consistency and standardization, images were evaluated for the presence or absence of HO using two independent procedures, both of which were blinded to treatment group assignment. In the Primary Read process, two musculoskeletal radiologists independently compared baseline and post-baseline images within a single imaging modality.\nThe volume of new heterotopic ossification (HO), HO that occurred during the non-quiescent period, was assessed 12 weeks following initiation of treatment for the “Non-Quiescent Only” treatment group and 12 weeks after initiation of the 20 mg/day NQ loading dose in the “Quiescent/Non-Quiescent” treatment group."}, "wild-type mice": {"tested_on": "wild-type mice", "assay": "Growth plate assessment in wild-type mice", "assay_type": "in vivo", "experimental": "(§2) The effects of palovarotene on the growth plates were assessed."}, "Prrx1-R206H mice": {"tested_on": "Prrx1-R206H mice", "assay": "Growth plate assessment in Prrx1-R206H mice", "assay_type": "in vivo", "experimental": "as §2"}, "growth plate": {"tested_on": "growth plate", "assay": "Growth plate assessment by knee and hand/wrist radiographs in children", "assay_type": "in vivo, human", "conditions": "acute 6-week treatment"}, "[3]": {"tested_on": "heterotopic ossification in subjects with fibrodysplasia ossificans progressiva", "assay": "Flare-up outcomes, open-label study (new HO by low-dose CT scan)", "assay_type": "in vivo, human", "conditions": "open-label extension study, 27 flare-ups treated with open-label palovarotene", "experimental": "as §1"}, "[4]": {"tested_on": "subjects with fibrodysplasia ossificans progressiva", "assay": "Safety outcomes, double-blind study", "assay_type": "in vivo, human", "experimental": "as §1\nThe most frequently reported adverse events overall were dry skin (58.8%) and dry lips (32.4%)."}},
  "data": [
    {"smiles": "CC1(C)CCC(C)(C)c2cc(Cn3cccn3)c(/C=C/c3ccc(C(=O)O)cc3)cc21", "note": "[palovarotene, 4-[(1E)-2-[5,6,7,8-Tetrahydro-5,5,8,8-tetramethyl-3-(1H-pyrazol-1-ylmethyl)-2-naphthalenyl]-ethenyl]-benzoic acid]", "values": [
      {"measurement": "dose reductions or discontinuations of treatment", "setting": "[1]", "value": "no dose reductions or discontinuations of treatment"},
      {"measurement": "retinoid-associated adverse events mild in severity", "setting": "[1]", "value": 69.2, "unit": "%"},
      {"measurement": "subjects reporting retinoid-associated adverse events", "setting": "[1]", "value": "all subjects"},
      {"measurement": "overall incidence of adverse events", "setting": "[1]; 12 of 13 subjects", "value": 92.3, "unit": "%"},
      {"measurement": "incidence of dry skin", "setting": "[1]; overall", "value": 69.2, "unit": "%"},
      {"measurement": "incidence of pruritus", "setting": "[1]; overall", "value": 61.5, "unit": "%"},
      {"measurement": "reduction in mean bone volume formation (new HO) relative to Placebo/Untreated group", "setting": "[2]; Non-Quiescent Only group (both doses pooled)", "value": 75, "unit": "%"},
      {"measurement": "volume of new heterotopic ossification", "setting": "[2]; PVO Quiescent/Non-Quiescent: 5 mg daily quiescent, 20 mg daily 28 days then 10 mg daily 56 days after flare-up (10 patients), 12 weeks after start of NQ loading dose", "value": 212, "unit": "mm^3"},
      {"measurement": "reduction in mean bone volume formation (new HO) relative to Placebo/Untreated group", "setting": "[2]; Quiescent/Non-Quiescent group", "value": 97, "unit": "%"},
      {"measurement": "effect on growth plate", "setting": "wild-type mice", "value": "Adverse effects"},
      {"measurement": "effect on long bone growth, growth plate organization and matrix deposition", "setting": "Prrx1-R206H mice", "value": "preserved long bone growth and near-normalized growth plate organization and matrix deposition"},
      {"measurement": "effect on histologic growth plate abnormalities and long bone length", "setting": "Prrx1-R206H mice; daily dosing", "value": "reversed histologic growth plate abnormalities and shortened long bones"},
      {"measurement": "adverse effects on the growth plate", "setting": "growth plate", "value": "no adverse effects on the growth plate"},
      {"measurement": "number of flare-ups with new HO", "setting": "[3]", "value": "four"},
      {"measurement": "dose reductions or discontinuations of treatment", "setting": "[4]", "value": "no dose reductions or discontinuations of treatment"},
      {"measurement": "incidence and severity of retinoid-associated adverse events, trend", "setting": "[4]", "value": "dose-related increases in the incidence and severity"},
      {"measurement": "severity of most retinoid-associated adverse events", "setting": "[4]", "value": "mild or moderate"},
      {"measurement": "trend of adverse event incidence across the treatment groups", "setting": "[4]", "value": "dose-related increases across the treatment groups"},
      {"measurement": "overall incidence of adverse events", "setting": "[4]; 33 of 34 subjects with safety data, all treatment groups (placebo, 5/2.5 mg, 10/5 mg)", "value": 97.1, "unit": "%"},
      {"measurement": "incidence of dry lips", "setting": "[4]; overall", "value": 32.4, "unit": "%"},
      {"measurement": "incidence of dry skin", "setting": "[4]; overall", "value": 58.8, "unit": "%"}
    ]}
  ]
}
